Experimental data published in BindingDB's records for patent US20250382308 (Nuevolution, 2025).

Experiments:
[1] = target: cGMP-inhibited 3',5'-cyclic phosphodiesterase 3A (Homo sapiens, UniProt Q14432); test: Radiometric PDE3A Assay
Experimental: Partially purified human recombinant phosphodiesterase (PDE3A) was obtained by cloning cDNA and expressing in S. frugiperda insect cells using a baculovirus expression system. Cells were harvested from culture by centrifuging at 400×g for 5 minutes. Cell pellet was resuspended in 20 ml of RIPA Buffer (150 mM NaCl, 10 mM Tris, 0.1% NP-40, pH8.3), 4 ml/200 ml of culture, plus protease inhibitors (100 μl/10 ml) and incubated on ice for 10-20 minutes then spun at 3500×g for 10 minutes at 4° C. Supernatant was kept and the pellet thrown away. Tritium-labeled cyclic AMP was hydrolysed to 5′-AMP by PDE3A. The 5′-AMP was then further hydrolysed to adenosine by nucleotidase in snake venom. An anion-exchange resin binds all charged nucleotides and leaves [3H]adenosine as the only labeled compound to be counted by liquid scintillation. The radiometric assay method is a modification of the two-step method of Thompson and Appleman [Biochemistry 10; 311-316; 1971], adapted for a 96 well plate format. 50 μl of diluted PDE3A was incubated with 50 μl of [3H]-CAMP (specific activity 25 Ci/mmol) and 11 μl of 50% DMSO (or compound dilution) for 20 minutes at 30° C. […] 50 μl of supernatant was removed and added to 200 μl of MicroScint-20 in white plates (Greiner 96-well Optiplate) and shaken for 30 minutes before reading on Perkin Elmer TopCount Scintillation Counter.

[2] = target: T1, Bromodomain-containing protein 4 [58-164] (Homo sapiens, UniProt O60885); test: Bromodomain Assay
T1 construct: 58-164
Experimental: (§1) The liganded beads were blocked with excess biotin and washed with blocking buffer (SeaBlock (Pierce), 1% BSA (bovine serum albumin), 0.05% Tween 20, 1 mM DTT (dithiothreitol)) to remove unbound ligand and to reduce non-specific phage binding. […] Test compounds were prepared as 1000× stocks in 100% DMSO and subsequently diluted 1:10 in monoethylene glycol (MEG) to create stocks at 100× the screening concentration (resulting stock solution is 10% DMSO/90% MEG). The compounds were then diluted directly into the assays such that the final concentration of DMSO and MEG were 0.1% and 0.9%, respectively. All reactions were performed in polystyrene 96-well plates in a final volume of 0.135 ml. […] The bromodomain concentration in the eluates was measured by qPCR (quantitative real-time polymerase chain reaction).

[3] = target: T2, Bromodomain-containing protein 4 [353-454] (Homo sapiens, UniProt O60885); test: Bromodomain Assay
T2 construct: 353-454
Experimental: as §1

Sequence of cGMP-inhibited 3',5'-cyclic phosphodiesterase 3A (Q14432 whole entry): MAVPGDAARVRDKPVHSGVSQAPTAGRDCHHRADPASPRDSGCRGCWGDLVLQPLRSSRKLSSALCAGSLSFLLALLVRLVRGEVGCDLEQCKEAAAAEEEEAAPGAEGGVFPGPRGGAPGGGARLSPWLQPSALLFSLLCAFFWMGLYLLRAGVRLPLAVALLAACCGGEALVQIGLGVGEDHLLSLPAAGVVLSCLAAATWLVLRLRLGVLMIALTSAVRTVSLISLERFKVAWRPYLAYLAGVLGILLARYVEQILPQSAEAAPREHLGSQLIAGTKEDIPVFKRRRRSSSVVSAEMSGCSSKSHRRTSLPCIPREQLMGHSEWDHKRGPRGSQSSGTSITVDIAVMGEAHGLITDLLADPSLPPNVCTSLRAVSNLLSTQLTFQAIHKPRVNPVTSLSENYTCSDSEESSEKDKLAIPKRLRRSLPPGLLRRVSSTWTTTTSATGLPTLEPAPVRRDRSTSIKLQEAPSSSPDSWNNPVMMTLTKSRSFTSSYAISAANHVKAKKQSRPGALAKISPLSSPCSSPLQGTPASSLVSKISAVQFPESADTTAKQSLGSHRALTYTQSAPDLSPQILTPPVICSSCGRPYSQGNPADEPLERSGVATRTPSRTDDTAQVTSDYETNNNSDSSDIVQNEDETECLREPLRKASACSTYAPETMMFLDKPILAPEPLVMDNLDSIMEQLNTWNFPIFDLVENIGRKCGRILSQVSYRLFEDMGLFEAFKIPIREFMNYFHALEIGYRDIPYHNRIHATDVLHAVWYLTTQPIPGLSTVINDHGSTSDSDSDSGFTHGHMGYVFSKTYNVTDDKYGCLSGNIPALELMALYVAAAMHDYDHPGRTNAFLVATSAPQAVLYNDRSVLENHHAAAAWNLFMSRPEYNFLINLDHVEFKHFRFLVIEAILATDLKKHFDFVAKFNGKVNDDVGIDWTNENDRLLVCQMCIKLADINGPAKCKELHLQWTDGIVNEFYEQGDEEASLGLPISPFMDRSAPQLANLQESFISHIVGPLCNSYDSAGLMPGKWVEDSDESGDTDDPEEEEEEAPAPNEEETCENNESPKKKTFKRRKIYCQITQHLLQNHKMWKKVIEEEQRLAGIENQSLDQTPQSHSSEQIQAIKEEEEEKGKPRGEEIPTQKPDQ

Structure (SMILES) | IC50 [1] [µM] | Kd [2] [nM] | Kd [3] [nM]
CCN(CC)c1nc2c(cc1C(=O)Nc1cc(OC)c3[nH]c(=O)cc(C)c3c1)COC2 [US20250382308, Example 27] | > 10 | 25 | 600
COc1cc(NC(=O)c2cc3c(nc2N2CCC(F)(F)C2)COC3)cc2c(C)cc(=O)[nH]c12 [US20250382308, Example 16] |  | 21 | 900
